# Reference: US7662860B2 (priority 2003, dated 2010)
# Like-named read-outs stand apart in the source and are kept apart here.
# Experiments:
# SARS-CoV virus = type: cell-based; details: for CPE / Protective ratio of the infected cells: Vero-E6 cells infected with SARS-CoV; for Protective ratio of the infected cells: >1.5 times judged active
structure (smiles),measurement,setting,value
"CN(C)CCCSc1ccccc1NC(=O)C=Cc1ccccc1 [cinanserin, 2′-(3-dimethylaminopropylthio)cinnamanilide]",CPE,SARS-CoV virus; 4 ug/mL,+ (<25% +)
same,Protective ratio of the infected cells,SARS-CoV virus; 4 ug/mL,3.69 times
same,CPE,SARS-CoV virus; 20 ug/mL,+ (<25% +)
same,Protective ratio of the infected cells,SARS-CoV virus; 20 ug/mL,3.85 times
same,protective activity of inhibiting SARS-CoV from infecting Vero-E6 cell,SARS-CoV virus; result in words,evident protective activity
same,Cytotoxicity of the sample,Vero-E6 cell,"—* (key: *: if the cytotoxicity of the sample is >50% when comparing with the cell control, CPE isn't evaluated, and the protective ratio isn't calculated)"
